# Results published in ChEMBL document CHEMBL1201862, “PubChem BioAssay data set” (2004).
#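 These data come from cells grown in 96-well plates and exposed to compound for 48 hours at five concentrations. GI50 marks 50% less growth.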 The source made the active and inactive calls. Cut-off read from the data, not from the text of the source: active = GI50 up to about 1.1 µM and inactive = higher.
# Key:
# Assay in all cases: growth of human tumour cells (NCI), 48 h
# [1] = test system: CAKI-1
# [2] = test system: CCRF-CEM
# [3] = test system: HT-29
# [4] = test system: OVCAR-8
# [5] = test system: IGROV-1
# [6] = test system: NCI-H522
# [7] = test system: MOLT-4
# [8] = test system: OVCAR-5
# [9] = test system: NCI-H226
# [10] = test system: SF-268
# [11] = test system: T47D
# [12] = test system: MCF7
# [13] = test system: MDA-N
# [14] = test system: A549
# [15] = test system: HOP-92
# [16] = test system: Hs-578T
# [17] = test system: SF-539
# [18] = test system: SN12C
# [19] = test system: NCI-H460
# [20] = test system: RPMI-8226
# [21] = test system: SK-MEL-28
# [22] = test system: DU-145
# [23] = test system: HL-60
# [24] = test system: SK-MEL-5
# [25] = test system: COLO 205
# [26] = test system: Malme-3M
# [27] = test system: HOP-62
# [28] = test system: NCI/ADR-RES
# [29] = test system: UACC-257
# [30] = test system: OVCAR-4
# [31] = test system: K562
# [32] = test system: KM12
# [33] = test system: A498
# [34] = test system: HCT-116
# [35] = test system: SK-MEL-2
# [36] = test system: MDA-MB-435
# [37] = test system: UO-31
# [38] = test system: MDA-MB-231
# [39] = test system: LOX IMVI
# [40] = test system: NCI-H23
# [41] = test system: SNB-19
# [42] = test system: BT-549
# [43] = test system: SW-620
# [44] = test system: OVCAR-3
# [45] = test system: ACHN
# [46] = test system: UACC-62
# [47] = test system: U-251
# [48] = test system: M14
# [49] = test system: HCC 2998
# [50] = test system: RXF 393
# [51] = test system: EKVX
# [52] = test system: SNB-75
# [53] = test system: SK-OV-3
# [54] = test system: HCT-15
# [55] = test system: SF-295
# [56] = test system: 786-0
# [57] = test system: PC-3
# [58] = test system: TK-10
structure (smiles),measurement,setting,value
CN(C)C(C1=C(O)C(c2ccccc2)N(c2ccccc2)C1=O)N1CCOCC1 (stereo not given),GI50,[1],> 10 µM (inactive)
same,GI50,[2],> 10 µM (inactive)
same,GI50,[3],> 10 µM (inactive)
same,GI50,[4],> 10 µM (inactive)
same,GI50,[5],> 10 µM (inactive)
same,GI50,[6],> 10 µM (inactive)
same,GI50,[7],> 10 µM (inactive)
same,GI50,[8],> 10 µM (inactive)
same,GI50,[9],> 10 µM (inactive)
same,GI50,[10],> 10 µM (inactive)
same,GI50,[11],> 10 µM (inactive)
same,GI50,[12],> 10 µM (inactive)
same,GI50,[13],> 10 µM (inactive)
same,GI50,[14],> 10 µM (inactive)
same,GI50,[15],> 10 µM (inactive)
same,GI50,[16],> 10 µM (inactive)
same,GI50,[17],> 10 µM (inactive)
same,GI50,[18],> 10 µM (inactive)
same,GI50,[19],> 10 µM (inactive)
same,GI50,[20],> 10 µM (inactive)
same,GI50,[21],> 10 µM (inactive)
same,GI50,[22],> 10 µM (inactive)
same,GI50,[23],> 10 µM (inactive)
same,GI50,[24],> 10 µM (inactive)
same,GI50,[25],> 10 µM (inactive)
same,GI50,[26],> 10 µM (inactive)
same,GI50,[27],> 10 µM (inactive)
same,GI50,[28],> 10 µM (inactive)
same,GI50,[29],> 10 µM (inactive)
same,GI50,[30],> 10 µM (inactive)
same,GI50,[31],> 10 µM (inactive)
same,GI50,[32],> 10 µM (inactive)
same,GI50,[33],> 10 µM (inactive)
same,GI50,[34],> 10 µM (inactive)
same,GI50,[35],> 10 µM (inactive)
same,GI50,[36],> 10 µM (inactive)
same,GI50,[37],> 10 µM (inactive)
same,GI50,[38],> 10 µM (inactive)
same,GI50,[39],> 10 µM (inactive)
same,GI50,[40],> 10 µM (inactive)
same,GI50,[41],> 10 µM (inactive)
same,GI50,[42],> 10 µM (inactive)
same,GI50,[43],> 10 µM (inactive)
same,GI50,[44],> 10 µM (inactive)
same,GI50,[45],> 10 µM (inactive)
same,GI50,[46],> 10 µM (inactive)
same,GI50,[47],> 10 µM (inactive)
same,GI50,[48],> 10 µM (inactive)
same,GI50,[49],> 10 µM (inactive)
same,GI50,[50],> 10 µM (inactive)
same,GI50,[51],> 10 µM (inactive)
same,GI50,[52],> 10 µM (inactive)
same,GI50,[53],> 10 µM (inactive)
same,GI50,[54],> 10 µM
same,GI50,[55],> 10 µM (inactive)
same,GI50,[56],> 10 µM (inactive)
same,GI50,[57],> 10 µM (inactive)
same,GI50,[58],> 10 µM (inactive)
CCNc1nc(N)c(C(=O)c2ccc(Cl)cc2)s1,GI50,[2],5.75 µM (inactive)
same,GI50,[3],27 µM (inactive)
same,GI50,[5],25.1 µM (inactive)
same,GI50,[7],27.4 µM (inactive)
same,GI50,[8],32.7 µM (inactive)
same,GI50,[9],22.3 µM (inactive)
same,GI50,[10],30.7 µM (inactive)
same,GI50,[11],33 µM (inactive)
same,GI50,[12],28.6 µM (inactive)
same,GI50,[13],41.8 µM (inactive)
same,GI50,[14],20.7 µM (inactive)
same,GI50,[15],> 100 µM (inactive)
same,GI50,[16],4.86 µM (inactive)
same,GI50,[17],33 µM (inactive)
same,GI50,[18],49.7 µM (inactive)
same,GI50,[19],18.8 µM (inactive)
same,GI50,[20],30.3 µM (inactive)
same,GI50,[21],76.6 µM (inactive)
same,GI50,[22],32.7 µM (inactive)
same,GI50,[23],13.6 µM (inactive)
same,GI50,[24],27.7 µM (inactive)
same,GI50,[25],18.9 µM (inactive)
same,GI50,[26],> 100 µM (inactive)
same,GI50,[27],44.2 µM (inactive)
same,GI50,[28],42.1 µM (inactive)
same,GI50,[29],71 µM (inactive)
same,GI50,[30],36.3 µM (inactive)
same,GI50,[31],29.3 µM (inactive)
same,GI50,[32],30.3 µM (inactive)
same,GI50,[33],20.8 µM (inactive)
same,GI50,[34],27.9 µM (inactive)
same,GI50,[35],41.7 µM (inactive)
same,GI50,[36],32.2 µM (inactive)
same,GI50,[37],15 µM (inactive)
same,GI50,[38],> 100 µM (inactive)
same,GI50,[39],40.1 µM (inactive)
same,GI50,[40],45.6 µM (inactive)
same,GI50,[41],18.9 µM (inactive)
same,GI50,[42],40.3 µM (inactive)
same,GI50,[43],31.2 µM (inactive)
same,GI50,[44],19.9 µM (inactive)
same,GI50,[45],23.7 µM (inactive)
same,GI50,[46],45.5 µM (inactive)
same,GI50,[47],36.7 µM (inactive)
same,GI50,[48],44.6 µM (inactive)
same,GI50,[50],22 µM (inactive)
same,GI50,[51],4.52 µM (inactive)
same,GI50,[53],29.9 µM (inactive)
same,GI50,[54],26.9 µM
same,GI50,[56],39.9 µM (inactive)
same,GI50,[57],39.9 µM (inactive)
same,GI50,[58],14.3 µM (inactive)
